From PubChem BioAssay (NCI)
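Compound exposure: 48 hours, 5 concentrations, 96-well plates. TGI: concentration producing complete growth inhibition.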

Legend:
Experiment in all cases: inhibition of tumour cell growth, NCI panel, 48 h
[1] = test system: A549 NSCLC
[2] = test system: CCRF-CEM leukemia
[3] = test system: COLO 205 colon
[4] = test system: HCC-2998 colon
[5] = test system: HCT-15 colon
[6] = test system: HOP-62 NSCLC
[7] = test system: HS 578T breast
[8] = test system: HT29 colon
[9] = test system: IGROV1 ovarian
[10] = test system: LOX IMVI melanoma
[11] = test system: M14 melanoma
[12] = test system: NCI/ADR-RES ovarian
[13] = test system: OVCAR-4 ovarian
[14] = test system: OVCAR-5 ovarian
[15] = test system: RXF 393 renal
[16] = test system: SF-268 CNS
[17] = test system: SK-MEL-2 melanoma
[18] = test system: SNB-75 CNS

| SMILES | TGI [1] | TGI [2] | TGI [3] | TGI [4] | TGI [5] | TGI [6] | TGI [7] | TGI [8] | TGI [9] | TGI [10] | TGI [11] | TGI [12] | TGI [13] | TGI [14] | TGI [15] | TGI [16] | TGI [17] | TGI [18] |
| --- | --- | --- | --- | --- | --- | --- | --- | --- | --- | --- | --- | --- | --- | --- | --- | --- | --- | --- |
| COC(=O)/C=C(/C(=O)OC)c1cc2ccc3c([nH]c4ccccc43)c(C)c-2c1 | > 100 µM | 10.8 µM | 3.3 µM | 13 µM | 29 µM | 37.5 µM | 8.91 µM | 8.9 µM | 13.1 µM | 14.5 µM | 16 µM | > 100 µM | 69.3 µM | 13.6 µM | > 100 µM | 21.4 µM | 26.8 µM | 59.2 µM |
| COc1ccc(P2(=S)SP(=S)(c3ccc(Cl)cc3)S2)cc1 (centres undefined) | > 100 µM | > 100 µM | > 100 µM | > 100 µM | > 100 µM | > 100 µM | > 100 µM | > 100 µM | > 100 µM | > 100 µM | > 100 µM | > 100 µM | > 100 µM | > 100 µM | > 100 µM | > 100 µM | > 100 µM | > 100 µM |
| CCOC(=O)NC(C(=O)OCC)(N1CCN(c2cc3c(cc2F)c(=O)c(C(=O)O)cn3CC)CC1)C(F)(F)F (centres undefined) | > 100 µM | > 100 µM | > 100 µM | > 100 µM | > 100 µM | > 100 µM | > 100 µM | > 100 µM | > 100 µM | > 100 µM | > 100 µM | > 100 µM | > 100 µM | > 100 µM | > 100 µM | > 100 µM | > 100 µM | > 100 µM |
| COc1ccc(-c2nnc3n(Cc4ccccc4)c4ccccc4n3c2=O)cc1 | > 100 µM | > 100 µM | > 100 µM | > 100 µM | > 100 µM | 12.2 µM | > 100 µM | > 100 µM | 63.7 µM | > 100 µM | > 100 µM | > 100 µM | 43.6 µM | > 100 µM | 61.8 µM | > 100 µM | > 100 µM | 41.8 µM |
| NC(=O)C(=CNC(=S)Nc1ccc(Cl)c(Cl)c1)C(N)=O | > 100 µM | > 100 µM | > 100 µM | > 100 µM | > 100 µM | > 100 µM | > 88.9 µM | > 100 µM | > 100 µM | > 100 µM | > 100 µM | > 100 µM | > 100 µM | > 100 µM | > 95.7 µM | > 100 µM | > 100 µM | > 100 µM |
| C[n+]1c2ccccc2n2c3ccccc3c(NCCc3ccccn3)c(C#N)c21 | 50.1 µM | 9.11 µM | 5.88 µM | 1.24 µM | 17.4 µM | 11.8 µM | 12.1 µM | > 100 µM |  | 3.41 µM | 6.56 µM | > 60 µM | 5.93 µM | > 21.7 µM | 4.62 µM | > 22.4 µM | 7.73 µM | 5.22 µM |
| c1ccc(-c2nnc(SCc3c[nH]c4ccccc34)n2-c2ccccc2)cc1 | > 100 µM | > 100 µM | > 100 µM | > 100 µM | > 100 µM | > 100 µM | 93.5 µM | > 100 µM | > 100 µM | > 100 µM | > 100 µM | > 100 µM | > 100 µM | > 100 µM | 52.5 µM | > 100 µM | > 100 µM | 57.6 µM |
| CC(C)COC(=O)OC(=O)c1ccc(N(C)Cc2cnc3nc(N)nc(N)c3n2)cc1 | > 100 µM | > 100 µM | > 100 µM | > 100 µM | > 100 µM | > 100 µM | > 100 µM | > 100 µM | > 100 µM | > 100 µM | > 100 µM | > 100 µM | > 100 µM | > 100 µM | > 100 µM | > 100 µM | > 100 µM | > 100 µM |
| O=C(NNCC(F)(F)F)c1ccncc1 | > 100 µM | > 100 µM | > 100 µM | > 100 µM | > 100 µM | > 100 µM | > 100 µM | > 100 µM | > 100 µM | > 100 µM | > 100 µM | > 100 µM | > 100 µM | > 100 µM | > 100 µM | > 100 µM | > 100 µM | > 100 µM |
| COc1c2c(cc3c1OCO3)C13C=CC(OC)CC1N(CC3)C2 (centres undefined) | > 100 µM | > 100 µM | > 100 µM | > 100 µM | > 100 µM | > 100 µM | > 100 µM | > 100 µM | > 100 µM | > 100 µM | > 100 µM | > 100 µM | > 100 µM | > 100 µM | > 100 µM | > 100 µM | > 100 µM | > 100 µM |
